Assays:
Test in all cases: Z'-LYTE kinase panel
Assay type in all cases: biochemical
EPHB1 = biological target: T1, EPHB1 (Homo sapiens, UniProt P54762)
T1 construct: purchased ThermoFisher (SelectScreen, Z'-LYTE)
T1 sequence (P54762 18-984): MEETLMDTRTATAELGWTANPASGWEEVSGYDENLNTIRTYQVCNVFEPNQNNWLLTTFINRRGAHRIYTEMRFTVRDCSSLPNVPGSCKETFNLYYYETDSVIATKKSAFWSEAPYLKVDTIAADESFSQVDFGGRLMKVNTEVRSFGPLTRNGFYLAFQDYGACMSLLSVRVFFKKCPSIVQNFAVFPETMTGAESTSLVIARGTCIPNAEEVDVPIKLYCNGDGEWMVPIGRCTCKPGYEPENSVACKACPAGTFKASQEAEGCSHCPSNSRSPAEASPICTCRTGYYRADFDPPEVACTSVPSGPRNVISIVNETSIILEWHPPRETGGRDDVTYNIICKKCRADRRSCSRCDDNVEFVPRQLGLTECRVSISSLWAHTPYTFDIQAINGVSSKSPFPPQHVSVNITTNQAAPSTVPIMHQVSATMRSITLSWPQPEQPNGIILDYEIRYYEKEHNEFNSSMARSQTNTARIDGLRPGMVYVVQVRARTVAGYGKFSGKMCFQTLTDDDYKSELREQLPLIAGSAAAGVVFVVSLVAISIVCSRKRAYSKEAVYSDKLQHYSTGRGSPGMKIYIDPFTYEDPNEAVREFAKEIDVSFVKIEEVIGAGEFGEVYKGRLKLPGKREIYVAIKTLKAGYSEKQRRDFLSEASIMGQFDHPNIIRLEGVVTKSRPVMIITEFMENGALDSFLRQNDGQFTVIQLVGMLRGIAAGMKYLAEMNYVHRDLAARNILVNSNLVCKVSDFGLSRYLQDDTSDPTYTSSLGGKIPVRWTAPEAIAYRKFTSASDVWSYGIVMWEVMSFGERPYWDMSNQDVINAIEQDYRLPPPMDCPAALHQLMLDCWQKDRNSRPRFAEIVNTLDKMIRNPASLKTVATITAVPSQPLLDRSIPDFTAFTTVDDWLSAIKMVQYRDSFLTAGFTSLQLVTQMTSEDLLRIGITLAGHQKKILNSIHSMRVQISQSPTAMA
Method in brief: (§1)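 Screened at 10 µM against a 225-kinase panel; the Z′-LYTE standard assay gave percentage inhibition values.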

MAPKAPK2 = biological target: T2, MAPKAPK2 (Homo sapiens, UniProt P49137)
T2 construct: purchased ThermoFisher (SelectScreen, Z'-LYTE)
Method in brief: as §1

MAPK1 (ERK2) = biological target: T3, MAPK1 (ERK2) (Homo sapiens, UniProt P28482)
T3 construct: purchased ThermoFisher (SelectScreen, Z'-LYTE)
Method in brief: as §1

PRKG1 = biological target: T4, PRKG1 (Homo sapiens, UniProt Q13976)
T4 construct: purchased ThermoFisher (SelectScreen, Z'-LYTE)
T4 sequence (Q13976 1-671): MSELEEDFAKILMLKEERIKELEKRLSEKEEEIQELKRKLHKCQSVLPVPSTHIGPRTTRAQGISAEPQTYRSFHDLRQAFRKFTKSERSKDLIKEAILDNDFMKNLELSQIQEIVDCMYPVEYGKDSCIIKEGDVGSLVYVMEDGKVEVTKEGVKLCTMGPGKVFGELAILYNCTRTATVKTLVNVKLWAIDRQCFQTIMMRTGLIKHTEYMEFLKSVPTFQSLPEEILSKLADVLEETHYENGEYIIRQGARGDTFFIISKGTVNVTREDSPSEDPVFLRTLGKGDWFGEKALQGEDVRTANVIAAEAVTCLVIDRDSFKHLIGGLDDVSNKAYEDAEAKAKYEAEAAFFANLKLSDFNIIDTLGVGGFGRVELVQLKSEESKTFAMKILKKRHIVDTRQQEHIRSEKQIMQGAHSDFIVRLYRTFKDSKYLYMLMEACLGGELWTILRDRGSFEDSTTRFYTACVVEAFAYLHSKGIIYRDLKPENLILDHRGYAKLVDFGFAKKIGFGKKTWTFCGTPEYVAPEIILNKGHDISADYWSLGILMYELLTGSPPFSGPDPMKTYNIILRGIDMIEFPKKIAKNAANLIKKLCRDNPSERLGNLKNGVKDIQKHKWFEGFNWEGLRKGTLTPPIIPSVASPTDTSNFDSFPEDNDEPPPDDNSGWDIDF
Method in brief: as §1

PRKCE (PKC epsilon) = biological target: T5, PRKCE (PKC epsilon) (Homo sapiens, UniProt Q02156)
T5 construct: purchased ThermoFisher (SelectScreen, Z'-LYTE)
T5 sequence (Q02156 1-737): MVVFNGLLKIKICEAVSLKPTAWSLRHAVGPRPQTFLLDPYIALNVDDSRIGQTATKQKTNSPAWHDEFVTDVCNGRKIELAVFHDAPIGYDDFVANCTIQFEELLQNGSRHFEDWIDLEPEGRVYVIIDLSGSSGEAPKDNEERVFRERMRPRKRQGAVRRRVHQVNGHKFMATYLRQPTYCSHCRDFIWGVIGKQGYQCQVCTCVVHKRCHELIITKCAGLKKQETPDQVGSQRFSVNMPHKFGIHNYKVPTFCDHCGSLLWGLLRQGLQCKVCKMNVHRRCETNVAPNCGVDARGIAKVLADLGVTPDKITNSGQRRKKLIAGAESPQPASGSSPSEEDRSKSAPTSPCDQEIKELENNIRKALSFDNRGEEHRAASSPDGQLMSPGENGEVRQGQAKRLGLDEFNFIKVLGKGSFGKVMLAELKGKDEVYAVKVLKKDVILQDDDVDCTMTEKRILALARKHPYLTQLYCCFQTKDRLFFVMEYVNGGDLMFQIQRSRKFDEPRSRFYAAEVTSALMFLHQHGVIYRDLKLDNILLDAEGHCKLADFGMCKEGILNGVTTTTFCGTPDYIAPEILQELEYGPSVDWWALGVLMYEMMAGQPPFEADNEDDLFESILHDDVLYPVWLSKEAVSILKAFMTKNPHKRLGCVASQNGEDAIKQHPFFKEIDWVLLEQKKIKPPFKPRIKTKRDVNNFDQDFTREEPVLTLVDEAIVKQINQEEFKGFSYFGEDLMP
Method in brief: as §1

T3 sequence (P28482 whole entry): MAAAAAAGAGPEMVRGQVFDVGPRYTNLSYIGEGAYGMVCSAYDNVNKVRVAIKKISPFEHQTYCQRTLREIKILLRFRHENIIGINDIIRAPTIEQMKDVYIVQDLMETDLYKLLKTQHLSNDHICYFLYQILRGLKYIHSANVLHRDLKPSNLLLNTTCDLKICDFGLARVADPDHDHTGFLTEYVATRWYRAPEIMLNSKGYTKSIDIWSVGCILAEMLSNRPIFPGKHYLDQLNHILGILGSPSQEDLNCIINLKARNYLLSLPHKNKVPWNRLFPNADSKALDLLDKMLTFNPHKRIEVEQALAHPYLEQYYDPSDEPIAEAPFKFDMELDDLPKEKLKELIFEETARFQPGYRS
T2 sequence (P49137 whole entry): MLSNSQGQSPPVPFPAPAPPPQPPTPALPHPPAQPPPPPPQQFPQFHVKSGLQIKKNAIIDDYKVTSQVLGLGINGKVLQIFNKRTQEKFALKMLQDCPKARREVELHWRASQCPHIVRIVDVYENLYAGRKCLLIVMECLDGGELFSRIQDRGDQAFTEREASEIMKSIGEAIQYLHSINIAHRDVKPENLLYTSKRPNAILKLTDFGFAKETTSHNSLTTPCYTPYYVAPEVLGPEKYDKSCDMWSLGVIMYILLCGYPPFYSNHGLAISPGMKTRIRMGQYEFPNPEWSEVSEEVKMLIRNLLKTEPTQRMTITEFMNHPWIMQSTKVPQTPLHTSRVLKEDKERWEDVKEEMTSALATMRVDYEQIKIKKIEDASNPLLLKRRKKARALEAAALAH

Row | Compound | inhibition at 10 µM (EPHB1) [%] | inhibition at 10 µM (MAPKAPK2) [%] | inhibition at 10 µM (MAPK1 (ERK2)) [%] | inhibition at 10 µM (PRKG1) [%] | inhibition at 10 µM (PRKCE (PKC epsilon)) [%] | EPHB1 % Inhibition (EPHB1; 10 µM compound, ATP Km app) [%] | MAPKAPK2 % Inhibition (MAPKAPK2; 10 µM compound, ATP Km app) [%] | MAPK1 (ERK2) % Inhibition (MAPK1 (ERK2); 10 µM compound, ATP Km app) [%] | PRKG1 % Inhibition (PRKG1; 10 µM compound, ATP Km app) [%] | PRKCE (PKC epsilon) % Inhibition (PRKCE (PKC epsilon); 10 µM compound, ATP Km app) [%]
1 | Cc1ncc(-c2nc(Nc3ccc(C(=O)NCCN4CCCCC4)cc3)ncc2F)n1C(C)C [Compound 3] | 94 | 52 | 39 | 80 | 45 |  |  |  |  | 
2 | Cc1cc(Nc2nc(N)nn2C(=O)NC(C)C)ccc1Cl [Compound 5] | 7.51 | 6.56 | 6 | -4 | -17 |  |  |  |  | 
3 | XMD8-92 [Compound 2, reference compound] |  |  |  |  |  | 5.39 | 93 | 9 | 10 | 1.55

Source: publication PMC4854315, “Discovery of a novel allosteric inhibitor-binding site in ERK5: comparison with the canonical kinase hinge ATP-binding site” (Acta Crystallographica. Section D, Structural Biology, 2016)
